Assay results: patent US9636418B2 (priority 2013, dated 2017)
“And” between values parts separate entries of the source, which are not always exact repeats. Equal entries are not always repeated. “Also recorded” adds a separate entry of the source. Where two headings read alike, the source gives them in different places.

How the values were obtained:
hNav1.7 = hNav1.7 (Homo sapiens, UniProt Q15858); assay: cell-based; assay type: cell-based; details: values quoted in text (average); read-out: hNav1.7 IC50 in the PX format
hNav1.7, sequence (Q15858 whole entry): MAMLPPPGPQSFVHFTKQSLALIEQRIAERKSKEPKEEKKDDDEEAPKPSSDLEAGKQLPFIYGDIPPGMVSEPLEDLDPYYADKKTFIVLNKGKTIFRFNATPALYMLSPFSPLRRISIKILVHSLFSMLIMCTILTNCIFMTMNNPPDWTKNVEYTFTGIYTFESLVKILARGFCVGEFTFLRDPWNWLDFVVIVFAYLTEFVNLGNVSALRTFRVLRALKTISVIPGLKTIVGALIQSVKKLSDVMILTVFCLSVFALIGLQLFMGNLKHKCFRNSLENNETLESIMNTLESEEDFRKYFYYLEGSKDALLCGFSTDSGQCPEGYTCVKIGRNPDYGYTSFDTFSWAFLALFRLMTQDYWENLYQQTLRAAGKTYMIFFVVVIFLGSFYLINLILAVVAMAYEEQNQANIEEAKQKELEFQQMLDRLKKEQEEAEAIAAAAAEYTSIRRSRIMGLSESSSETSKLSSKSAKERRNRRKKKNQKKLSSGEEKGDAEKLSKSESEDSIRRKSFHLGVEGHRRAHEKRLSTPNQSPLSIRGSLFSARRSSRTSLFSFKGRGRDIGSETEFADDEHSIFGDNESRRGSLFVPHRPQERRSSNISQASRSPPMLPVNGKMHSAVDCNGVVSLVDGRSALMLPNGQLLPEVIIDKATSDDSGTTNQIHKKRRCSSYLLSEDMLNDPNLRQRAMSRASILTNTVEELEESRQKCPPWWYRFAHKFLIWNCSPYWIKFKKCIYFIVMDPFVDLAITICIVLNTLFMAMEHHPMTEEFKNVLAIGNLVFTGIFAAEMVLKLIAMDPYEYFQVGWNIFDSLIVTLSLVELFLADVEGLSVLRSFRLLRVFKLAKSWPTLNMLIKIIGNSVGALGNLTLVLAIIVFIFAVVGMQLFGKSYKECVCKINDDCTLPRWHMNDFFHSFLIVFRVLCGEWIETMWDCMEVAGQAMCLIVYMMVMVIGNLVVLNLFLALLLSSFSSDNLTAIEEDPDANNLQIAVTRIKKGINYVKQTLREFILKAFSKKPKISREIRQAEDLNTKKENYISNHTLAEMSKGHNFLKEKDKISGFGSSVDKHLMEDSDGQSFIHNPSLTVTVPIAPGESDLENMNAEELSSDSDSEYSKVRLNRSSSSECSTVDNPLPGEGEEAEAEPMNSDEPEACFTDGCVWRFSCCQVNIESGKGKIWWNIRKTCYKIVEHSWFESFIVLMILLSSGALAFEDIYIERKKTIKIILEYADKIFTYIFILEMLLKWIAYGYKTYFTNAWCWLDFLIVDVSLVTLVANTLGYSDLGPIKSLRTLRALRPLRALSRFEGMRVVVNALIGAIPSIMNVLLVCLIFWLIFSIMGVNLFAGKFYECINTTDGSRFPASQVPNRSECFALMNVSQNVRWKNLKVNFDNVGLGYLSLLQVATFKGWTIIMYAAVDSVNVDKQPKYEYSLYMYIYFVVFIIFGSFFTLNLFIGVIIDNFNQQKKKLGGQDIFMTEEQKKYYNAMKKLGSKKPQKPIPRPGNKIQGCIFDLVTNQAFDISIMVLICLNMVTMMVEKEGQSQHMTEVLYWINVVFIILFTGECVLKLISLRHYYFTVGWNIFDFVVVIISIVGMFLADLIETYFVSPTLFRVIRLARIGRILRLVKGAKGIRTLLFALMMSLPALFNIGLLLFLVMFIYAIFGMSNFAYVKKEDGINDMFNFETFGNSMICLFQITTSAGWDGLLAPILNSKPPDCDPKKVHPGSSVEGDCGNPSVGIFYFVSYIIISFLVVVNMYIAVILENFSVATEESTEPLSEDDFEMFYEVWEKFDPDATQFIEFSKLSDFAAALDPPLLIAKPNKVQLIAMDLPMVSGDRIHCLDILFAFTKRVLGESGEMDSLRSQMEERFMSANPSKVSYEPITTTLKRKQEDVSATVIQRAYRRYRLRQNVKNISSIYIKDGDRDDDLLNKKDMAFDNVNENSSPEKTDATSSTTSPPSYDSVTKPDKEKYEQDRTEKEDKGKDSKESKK

male CD-1 mice [1] = details: mouse, in vivo
[2] = cyno plasma, 37° C., incubation 0 hr
[3] = 1 mg/kg s.c.
male CD-1 mice [4] = details: mouse, in vivo; remark: listed apart in the source
male Sprague-Dawley rats [5] = details: 5.0 mg/kg s.c., 2 h post peptide injection
[6] = human plasma, 37° C., incubation 0 hr
in vivo = details: CD-1, mouse, sc, 1 mg/kg
male CD-1 mice [7] = details: for terminal exposure (plasma): 2 h post peptide injection
in vitro [8] = details: monkey, plasma
[9] = test system: TTX-sensitive Nav channels in mouse DRG neuron; assay type: cell-based
in vitro [10] = details: human, plasma
male Sprague-Dawley rats [11] = assay type: in vivo, rat
[12] = 0.1, 0.3 or 1.0 mg/kg s.c., 1-hour pre-treatment

Structure (SMILES): CC[C@H](C)[C@H](NC(=O)[C@H](CCCCN)NC(=O)[C@H](CCCNC(=N)N)NC(=O)[C@@H]1CSSC[C@@H]2NC(=O)[C@H](C)NC(=O)[C@H](CCCNC(=N)N)NC(=O)[C@H](CCCCN)NC(=O)[C@H](CO)NC(=O)[C@H](CC(=O)O)NC(=O)[C@@H]3CSSC[C@H](NC(=O)[C@H](CCC(=O)O)NC(=O)[C@H](CC(C)C)NC(=O)CNC(=O)[C@H](CCC(=O)O)NC(=O)[C@H](CSSC[C@H](NC(=O)[C@@H](N)Cc4ccc(O)cc4)C(=O)N[C@@H](CCC(N)=O)C(=O)N[C@@H](CCCCN)C(=O)N[C@@H](Cc4c[nH]c5ccccc45)C(=O)N[C@@H](CCSC)C(=O)N[C@@H](Cc4c[nH]c5ccccc45)C(=O)N[C@@H]([C@@H](C)O)C(=O)N3)NC2=O)C(=O)N[C@@H](CCCCN)C(=O)N[C@@H](CC(C)C)C(=O)N[C@@H](Cc2c[nH]c3ccccc23)C(=O)N1)C(=O)N[C@@H](Cc1c[nH]c2ccccc12)C(N)=O [SEQ ID NO: 112, [Glu20;Trp29]JzTx-V(1-29)]
- IC50 (hNav1.7): 1.5 nM
- thermal latency / thermal hyperalgesia (male CD-1 mice [1]): no effect
- % Peptide Remaining [2]: 100%
- plasma concentration over the in vitro hNav1.7 IC50 by PX ([3]; CD-1 mice): 26 fold
- time with measurable plasma concentrations ([3]; mice): 4 h
- tolerability ([3]; mice): tolerated
- time spent lifting and/or licking the affected paw, first phase (0-5 min) (male CD-1 mice [4]): no effect and Neither the peptide nor the morphine positive control significantly reduced and 1 mg/kg dose of peptide may have slightly increased the pain response
- time spent lifting and/or licking the affected paw, second phase (5-40 min) (male CD-1 mice [4]): no effect; also recorded: but not the peptide significantly reduced
- terminal exposure (plasma) (male Sprague-Dawley rats [5]): 0.994 ± 0.184 µM
- % Peptide Remaining [6]: 100%
- half-life (in vivo): ~2.08 h
- terminal exposure (plasma) (male CD-1 mice [7]; 0.1 mg/kg s.c.): 0.0248 ± 0.00668 µM
- terminal exposure (plasma) (male CD-1 mice [7]; 0.3 mg/kg s.c.): 0.121 ± 0.0296 µM
- terminal exposure (plasma) (male CD-1 mice [7]; 1.0 mg/kg s.c.): 0.419 ± 0.226 µM
- terminal exposure (plasma) (male CD-1 mice [7]; 5.0 mg/kg s.c.): 4.73 ± 0.584 µM
- total fine movement (male CD-1 mice [7]; [12]): no effect
- total time rearing (male CD-1 mice [7]; [12]): no effect
- remaining at 2 h (in vitro [8]): 93%
- remaining at 4 h (in vitro [8]): 91%
- remaining at 6 h (in vitro [8]): 90%
- remaining at 8 h (in vitro [8]): 91%
- remaining at 24 h (in vitro [8]): 89%
- block of TTX-sensitive Nav current [9]: only blocked around half of TTX-sensitive Nav current; also recorded: only partially blocked TTX-sensitive Nav current; also recorded: only partial inhibition
- loss in potency relative to the human clone of Nav1.7 ([9]; TTX-sensitive current, mouse DRG neurons): ~1000 fold
- remaining at 2 h (in vitro [10]): 95%
- remaining at 4 h (in vitro [10]): 84%
- remaining at 6 h (in vitro [10]): 75%
- remaining at 8 h (in vitro [10]): 71%
- remaining at 24 h (in vitro [10]): 48%
- formalin response, first or acute phase (0-5 min) (male Sprague-Dawley rats [11]; peptide 5.0 mg/kg s.c. 1-h pre-treatment, vs vehicle (PBS)): no effect
- formalin response, second phase (5-40 min) (male Sprague-Dawley rats [11]; rat, in vivo): did not decrease and may have actually increased; also recorded: may have actually increased the pain response
